Experimental data reported in patent US20120142005A1, “METHOD FOR SCREENING OF REGENERATIVE MEDICINE” (TAKEDA PHARMACEUTICAL COMPANY LIMITED, priority 2009, published 2012).

Columns and labels:
Format in all cases: cell-based
[1] = test system: human mesenchymal stem cells; assay: Bone differentiation of human mesenchymal stem cells: expression of Alp1, Runx2, Col1a1 and PTHR by quantitative RT-PCR; details: 8 days; for level of expression of Alp1: 3 μM compound added with bone differentiation induction, relative to DMSO control
Method: Then, the influence of the selected compounds was examined on bone differentiation of human mesenchymal stem cells. The human mesenchymal stem cells were maintained and cultured using the same technique as in Example 6. Cells were seeded on a 96-well plate to 1,000 cells per well and then cultured overnight using the growth medium. Thereafter, the bone differentiation was induced by exchanging the medium with a medium made by addition of 10% calf fetal serum, 2 mM GlutaMAX-1, 10 mMβ-glycerophosphate (Wako Pure Chemical Industries Ltd.), 0.05 mM ascorbic acid-2-phosphate (Wako Pure Chemical Industries Ltd.), 0.1 μM dexamethasone (Wako Pure Chemical Industries Ltd.), and 1× penicillin-streptomycin (Sigma) to low-glucose DMEM. Simultaneously with inducing bone differentiation, each selected compound was added to a final concentration of 3 μM, followed by adhesion culture for 8 days. After the end of culture, the level of expression of Alkaline phosphatase (Alp1) as an initial osteoblast marker was measured using the same technique as in Example 1.
The expression of other bone differentiation markers for which BIO or BrdU was added was also examined. Adhesion culture was performed for 8 days after adding BIO or BrdU, followed by measuring the levels of expression of runt-related transcription factor 2 (Runx2), collagen type 1 alpha 1 (Col1a1), and parathyroid hormone receptor (PTHR) using the same technique as in Example 1.

[2] = test system: human mesenchymal stem cells; assay: Bone differentiation of human mesenchymal stem cells: staining with alkaline phosphatase; details: 8 days
Method: To further verify the influence of compounds on bone differentiation, staining with alkaline phosphatase was performed. Simultaneously with inducing bone differentiation, 3 μM BIO or 10 μM BrdU was added, followed by adhesion culture for 8 days. After culture, cells were fixed with 4% paraformaldehyde (Wako Pure Chemical Industries Ltd.) for 30 minutes and then washed 3 times with PBS. Alkaline phosphatase kit III (Vector Laboratories) was used according to the appended protocol to stain with alkaline phosphatase.

[3] = test system: human mesenchymal stem cells; assay: Bone differentiation of human mesenchymal stem cells: amount of calcium accumulated in cells; details: 15 days
Method: In addition, the amount of calcium accumulated in cells was examined. Simultaneously with inducing bone differentiation, 3 μM BIO or 10 μM BrdU was added, followed by adhesion culture for 15 days. After culture, cells were washed with PBS, followed by dissolving the cells in a solution consisting of 10 mM Tris-HCl and 0.2% TritonX-100. Using a portion of the solution, the protein concentration was measured employing BCA protein assay kit (Pierce). Hydrochloric acid was added to a final concentration of 0.5 N to the remaining solution, which was then shaken overnight. The amount of calcium dissolving in the solution containing 0.5 N hydrochloric acid was measured using Calcium E-test Kit Wako (Wako Pure Chemical Industries Ltd.). The amount of calcium used the value corrected for the amount of protein for analysis.

[4] = test system: human mesenchymal stem cells; assay: Adipose differentiation of human mesenchymal stem cells: expression of adiponectin and PPARγ by quantitative RT-PCR; details: for level of expression of adiponectin: 3 μM compound added with adipose differentiation induction, 5 days, relative to DMSO control; for level of expression of PPARγ: adipose differentiation, 5 days (FIG. 12a)
Method: There was possibility that the selected compounds control the differentiation of adult stem cells as well as ES cells. Accordingly, the influence of these selected compounds was examined on adipose differentiation of human mesenchymal stem cells. The human mesenchymal stem cells were purchased from Lonza and subjected to adhesion culturing using a medium made by addition of 10% calf fetal serum, 2 mM GlutaMAX-1, and 1× penicillin-streptomycin (Sigma) (hereinafter referred to as “growth medium”) to low-glucose DMEM (Invitrogen). Upon induction of an adipose differentiation, cells were seeded on a 96-well plate to 3,000 cells per well and then cultured overnight using the growth medium. Thereafter, the adipose differentiation was induced by exchanging the growth medium with an adipose differentiation induction medium (i.e., a medium made by addition of 10% calf fetal serum, 2 mM GlutaMAX-1, 0.5 mM 3-isobutyl-1-methylxanthine (IBMX, Wako Pure Chemical Industries Ltd.), 10 μg/ml insulin (Wako Pure Chemical Industries Ltd.), 1 μM dexamethasone (Wako Pure Chemical Industries Ltd.), 200 μM indomethacin (Wako Pure Chemical Industries Ltd.), and 1× penicillin-streptomycin (Sigma) to high-glucose DMEM (Invitrogen)). Simultaneously with inducing adipose differentiation, each selected compound was added to a final concentration of 3 μM, followed by culture for 5 days. After 5 days, the level of expression of adiponectin as a fat cell marker was measured using the same technique as that described in Example 1.
In addition, the level of expression of PPARγ as a master regulator of adipose differentiation for which the 3 compounds (Y-27632, HA-100 and capsazepine) were each added was also measured using the same technique.

[5] = test system: human mesenchymal stem cells; assay: Adipose differentiation of human mesenchymal stem cells: fat droplet formation, oil red O staining; details: adhesion culturing 5 days
Method: The influence of the 3 compounds on fat droplet formation was then examined. Simultaneously with inducing adipose differentiation, 10 μM Y-27632, 10 μM HA-100, or 3 μM capsazepine was added to an adipose differentiation induction medium, followed by adhesion culturing for 5 days. Thereafter, the cells were fixed with 4% paraformaldehyde (Wako Pure Chemical Industries Ltd.) for 30 minutes and then washed 3 times with PBS. In addition, the cells were stained with 0.36% oil red 0 (Chemicon) at room temperature for 50 minutes and then washed 3 times with distilled water, followed by observing and photographing the cell.

[6] = test system: human mesenchymal stem cells; assay: Adipose differentiation of human mesenchymal stem cells: amount of adiponectin in culture solution, ELISA; details: adhesion culture 8 days
Method: In addition, when each of the 3 compounds was added, the amount of adiponectin contained in a corresponding culture solution was measured. Simultaneously with inducing adipose differentiation, 10 μM Y-27632, 10 μM HA-100, or 3 μM capsazepine was added, followed by adhesion culture for 8 days. After culture, the amount of adiponectin contained in the culture solution was measured using a human adiponectin ELISA kit (R&D systems).

O=C1Nc2cc(Br)ccc2/C1=C1/Nc2ccccc2/C1=N\O [BIO, 6-bromoindirubin-3′ oxime]
level of expression of Alp1 [1]: noticeably increasing the level of expression of Alp1
level of expression of Col1a1 ([1]; 3 μM compound): noticeably increased
level of expression of PTHR ([1]; 3 μM compound): noticeably increased
level of expression of Runx2 ([1]; 3 μM compound): noticeably increased
stainability with alkaline phosphatase (alkaline phosphatase activity) ([2]; 3 μM compound): increased the stainability with alkaline phosphatase
amount of calcium in cells, corrected for amount of protein ([3]; 3 μM compound): increased the amount of calcium in cells

O=c1[nH]c(=O)n([C@H]2C[C@H](O)[C@@H](CO)O2)cc1Br [BrdU, 5-Bromo-2′-deoxyuridine]
level of expression of Alp1 [1]: noticeably increasing the level of expression of Alp1
level of expression of Col1a1 ([1]; 10 μM compound): noticeably increased
level of expression of PTHR ([1]; 10 μM compound): noticeably increased
level of expression of Runx2 ([1]; 10 μM compound): noticeably increased
stainability with alkaline phosphatase (alkaline phosphatase activity) ([2]; 10 μM compound): increased the stainability with alkaline phosphatase
amount of calcium in cells, corrected for amount of protein ([3]; 10 μM compound): increased the amount of calcium in cells

O=S(=O)(c1cccc2cnccc12)N1CCNCC1 [HA-100]
level of expression of adiponectin [4]: increase the level of expression of adiponectin
level of expression of PPARγ [4]: increasing the level of expression of PPARγ in a concentration-dependent manner
amount of fat droplets (oil red O) compared to DMSO control ([5]; 10 μM compound): the amount of fat droplets increased
amount of adiponectin contained in the culture solution ([6]; 10 μM compound): noticeably increased the amount of adiponectin

C[C@@H](N)[C@H]1CC[C@H](C(=O)Nc2ccncc2)CC1 [Y-27632]
level of expression of adiponectin [4]: increase the level of expression of adiponectin
level of expression of PPARγ [4]: increasing the level of expression of PPARγ in a concentration-dependent manner
amount of fat droplets (oil red O) compared to DMSO control ([5]; 10 μM compound): the amount of fat droplets increased
amount of adiponectin contained in the culture solution ([6]; 10 μM compound): noticeably increased the amount of adiponectin

Oc1cc2c(cc1O)CN(C(=S)NCCc1ccc(Cl)cc1)CCC2 [capsazepine]
level of expression of adiponectin [4]: increase the level of expression of adiponectin
amount of fat droplets (oil red O) compared to DMSO control ([5]; 3 μM compound): no noticeable activity of increasing fat droplet formation
amount of adiponectin contained in the culture solution ([6]; 3 μM compound): no action of increasing the amount of adiponectin
